Experimental data taken from ChEMBL document CHEMBL1201862, “PubChem BioAssay data set” (2004).
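Test compounds were applied to cells in 96-well plates for 48 hours at 5 doses. GI50: concentration for 50% inhibition of growth.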 Activity calls are given as the source filed them. No stated cut-off is given here; in the data, active = GI50 up to about 1.1 µM and inactive = higher.

Columns and labels:
Experiment in all cases: DTP human tumour cell line panel, 48 h
[1] = system: ACHN
[2] = system: CAKI-1
[3] = system: CCRF-CEM
[4] = system: COLO 205
[5] = system: HT-29
[6] = system: KM12
[7] = system: MOLT-4
[8] = system: NCI-H522
[9] = system: OVCAR-4
[10] = system: OVCAR-5
[11] = system: RXF 393
[12] = system: SF-539
[13] = system: SN12C
[14] = system: SNB-75
[15] = system: SR
[16] = system: TK-10
[17] = system: U-251
[18] = system: UACC-257
[19] = system: HCC 2998

Measured: GI50

O=C(c1cccs1)N(C(=S)N1CCN(c2ccccc2)CC1)C1CCCCC1
inactive: [1] > 100 µM | [2] > 100 µM | [3] > 100 µM | [4] > 100 µM | [5] > 100 µM | [6] > 100 µM | [7] > 100 µM | [8] > 100 µM | [9] > 100 µM | [10] > 100 µM | [11] > 100 µM | [12] > 100 µM | [13] > 100 µM | [14] > 100 µM | [15] > 100 µM | [16] > 100 µM | [17] > 100 µM | [18] > 100 µM

O=C(O)CN1CCSc2ccccc2CN(CC(=O)O)CCSc2ccccc2C1
inactive: [1] > 100 µM | [2] > 100 µM | [3] > 100 µM | [4] > 100 µM | [19] > 100 µM | [5] > 100 µM | [6] > 100 µM | [8] > 100 µM | [10] > 100 µM | [12] > 100 µM | [13] > 100 µM | [14] > 100 µM | [15] 4.61 µM | [16] > 100 µM | [17] > 100 µM | [18] > 100 µM

CC(=O)O[C@H]1CC[C@@]2(C)C(=CC[C@H]3C4=CC=C(C(C)=O)[C@@]4(C)CCC32)C1 (stereo partly drawn)
inactive: [1] 34.1 µM | [2] 34.8 µM | [3] 21.4 µM | [4] 13.4 µM | [19] 48.4 µM | [5] 34.4 µM | [6] 19.9 µM | [7] 11.4 µM | [8] 20 µM | [9] 40.6 µM | [10] 27.9 µM | [11] 26.5 µM | [12] 47 µM | [13] 34.7 µM | [14] 31.1 µM | [15] 19.6 µM | [16] 23.7 µM | [17] 35.7 µM | [18] 24 µM

C=CCOCn1cc(F)c(=O)[nH]c1=O
inactive: [1] > 100 µM | [2] > 100 µM | [3] > 100 µM | [4] > 100 µM | [19] > 100 µM | [5] > 100 µM | [6] > 100 µM | [7] > 100 µM | [8] > 100 µM | [12] > 100 µM | [13] > 100 µM | [14] 31.6 µM | [15] > 100 µM | [16] > 100 µM | [18] > 100 µM

COc1ccc(-c2cc(O)c3cc4c(cc3n2)OCO4)c(OC)c1OC
inactive: [1] 76.2 µM | [2] > 100 µM | [3] 76.9 µM | [4] 53.1 µM | [19] > 100 µM | [5] > 100 µM | [6] 68.9 µM | [7] 62.7 µM | [8] 96.2 µM | [9] > 100 µM | [11] > 100 µM | [12] > 100 µM | [13] > 100 µM | [14] 27.7 µM | [15] 24.4 µM | [16] > 100 µM | [17] > 100 µM

CC(=O)N(C)C=C1C(=O)N(C)C(=O)N(C)C1=O
inactive: [1] > 100 µM | [2] > 100 µM | [3] > 100 µM | [19] > 100 µM | [5] > 100 µM | [6] > 100 µM | [7] > 100 µM | [9] > 100 µM | [10] > 100 µM | [11] > 100 µM | [12] > 100 µM | [13] > 100 µM | [14] > 100 µM | [15] > 100 µM | [16] > 100 µM | [17] > 100 µM | [18] > 100 µM

NC(=O)CCCC(NCc1c2ccccc2nc2ccccc12)C(=O)O (stereo not drawn)
inactive: [1] 49.8 µM | [2] 27.5 µM | [3] 22.2 µM | [4] 56.4 µM | [19] 50.9 µM | [5] 36.2 µM | [6] 29.2 µM | [7] 17.9 µM | [8] 22.6 µM | [9] 11.1 µM | [10] > 100 µM | [11] 51.8 µM | [12] 32.7 µM | [13] 41.5 µM | [14] 58.2 µM | [15] 25.9 µM | [16] 55 µM | [17] > 100 µM | [18] 85.1 µM

O=C1CC2(CCC3=C(O2)c2ccccc2NC(=O)C3)C(=O)c2ccccc2N1 (stereo not drawn)
inactive: [1] > 100 µM | [3] > 100 µM | [4] > 100 µM | [5] > 100 µM | [6] > 100 µM | [7] > 100 µM | [8] > 100 µM | [9] > 100 µM | [10] > 100 µM | [11] > 100 µM | [12] > 100 µM | [13] > 100 µM | [14] 22.2 µM | [15] > 10 µM | [16] > 100 µM | [17] > 100 µM

NNC(=S)N/N=C(\CCCC(=O)NCCc1ccccc1)CC(=O)c1ccccc1
inactive: [1] > 100 µM | [4] > 100 µM | [19] > 100 µM | [5] > 100 µM | [6] > 100 µM | [8] > 100 µM | [9] > 100 µM | [10] > 100 µM | [11] > 100 µM | [12] > 100 µM | [13] > 100 µM | [15] > 100 µM | [16] > 100 µM | [17] > 100 µM | [18] > 100 µM

O=P(Nc1ccccc1)(Oc1ccccc1)N(CCCl)CCCl (stereo not drawn)
inactive: [1] > 100 µM | [2] > 100 µM | [3] 37.8 µM | [4] > 100 µM | [19] > 100 µM | [5] > 100 µM | [6] 65.8 µM | [7] > 100 µM | [8] 14 µM | [9] > 100 µM | [10] > 100 µM | [12] > 100 µM | [13] > 100 µM | [14] > 100 µM | [15] > 100 µM | [16] > 100 µM | [17] > 100 µM | [18] > 100 µM

CCNC(=O)CCN(C(=O)O)S(=O)(=O)c1ccc(NC(=O)c2ccccc2)cc1
inactive: [1] > 100 µM | [2] > 100 µM | [3] 59.4 µM | [4] > 100 µM | [19] > 100 µM | [5] 50.8 µM | [6] > 100 µM | [7] > 100 µM | [8] > 100 µM | [9] > 100 µM | [10] > 100 µM | [12] > 100 µM | [13] > 100 µM | [14] > 100 µM | [15] > 100 µM | [16] > 100 µM | [17] > 100 µM | [18] > 100 µM
